The structures appear in SMILES notation.

Common to all, as to format: biochemical
In test [1] the target is T1, Recombinant human aldo-keto reductase family 1 member C2 (AKR1C2) protein (Homo sapiens, UniProt P52895).
T1 construct: made in house; host or cells: Sf-9 insect cells (baculovirus)
T1 sequence (P52895 1-323): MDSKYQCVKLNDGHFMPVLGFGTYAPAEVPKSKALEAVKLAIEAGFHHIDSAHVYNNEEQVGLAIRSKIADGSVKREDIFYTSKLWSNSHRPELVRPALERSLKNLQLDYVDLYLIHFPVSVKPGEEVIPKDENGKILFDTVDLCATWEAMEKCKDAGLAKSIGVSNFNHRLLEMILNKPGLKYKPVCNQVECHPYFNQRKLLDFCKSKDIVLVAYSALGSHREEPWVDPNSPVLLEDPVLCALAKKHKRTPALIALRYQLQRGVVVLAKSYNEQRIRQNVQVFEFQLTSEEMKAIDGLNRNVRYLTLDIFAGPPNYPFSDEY
Put plainly: Inhibition of the aldo-keto reductase family 1 member C2, 3H-dihydrotestosterone conversion. The following applies: inhibitor at 10 μM. The essentials: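 Sf-9-expressed enzyme (13.6 nM) incubated 45 min at 37 °C in 20 mM KH2PO4 pH 7.4 with 1 mM NADPH, 6.25 nM [3H]dihydrotestosterone and 10 μM compound (1% DMSO). After TCA stop, substrate and 5α-androstane-3α,17β-diol resolved by UPLC with radio-detection; inhibition from percent conversion.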

Test [2] concerns the target T2, 17β-Hydroxysteroid Dehydrogenase Type 2 Enzyme (17β-HSD2) (Homo sapiens, UniProt P37059).
T2 construct: made in house; host or cells: Sf-9 insect cells (baculovirus)
T2 sequence (P37059 1-387): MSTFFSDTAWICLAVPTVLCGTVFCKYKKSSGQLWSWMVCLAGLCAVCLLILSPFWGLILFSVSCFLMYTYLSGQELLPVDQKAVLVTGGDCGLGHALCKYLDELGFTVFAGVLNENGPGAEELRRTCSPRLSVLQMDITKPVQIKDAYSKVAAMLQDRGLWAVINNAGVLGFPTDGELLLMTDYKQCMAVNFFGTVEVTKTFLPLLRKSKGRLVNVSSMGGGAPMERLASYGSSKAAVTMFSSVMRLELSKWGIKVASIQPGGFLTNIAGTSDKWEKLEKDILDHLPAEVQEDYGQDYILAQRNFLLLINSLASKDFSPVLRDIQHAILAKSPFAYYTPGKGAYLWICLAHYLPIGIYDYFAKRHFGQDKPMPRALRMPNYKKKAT
Nature of the test: Inhibition of the 17β-hydroxysteroid dehydrogenase type 2 enzyme, 3H-testosterone conversion. The following applies: inhibitor at 10 μM. The procedure, abridged: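 Recombinant human 17β-HSD2 (Sf-9/baculovirus; 105 nM) incubated with 56.25 nM ³H-testosterone and 1 mM NAD in 20 mM KH2PO4 pH 8.5, 1 mM EDTA, 1% DMSO, 30 min at RT, inhibitor 10 μM. Reaction stopped with TCA; conversion to ³H-androstenedione by radio-UPLC gives percent inhibition.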

Test [3] deals with T3, Recombinant human AKR1C3 (17β-HSD5) protein (Homo sapiens, UniProt P42330).
T3 construct: made in house; host or cells: E. coli
T3 sequence (P42330 1-323): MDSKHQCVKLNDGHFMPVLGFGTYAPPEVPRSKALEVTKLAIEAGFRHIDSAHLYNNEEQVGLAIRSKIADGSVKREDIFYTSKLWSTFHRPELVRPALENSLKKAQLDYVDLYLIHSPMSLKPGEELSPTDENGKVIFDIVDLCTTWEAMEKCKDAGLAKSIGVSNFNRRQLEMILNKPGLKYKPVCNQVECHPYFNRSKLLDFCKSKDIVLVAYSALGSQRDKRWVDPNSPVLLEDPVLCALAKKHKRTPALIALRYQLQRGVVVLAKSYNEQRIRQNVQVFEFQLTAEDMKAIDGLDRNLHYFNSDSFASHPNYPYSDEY
Put plainly: Inhibition of AKR1C3 (17β-hydroxysteroid dehydrogenase type 5) enzyme, fluorescence assay. The following applies: inhibitor at 500 nM. The essentials: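 E. coli-expressed human AKR1C3 (27 nM) in 20 mM KH2PO4, 1 mM EDTA, pH 7.4, with 1 μM pyranoquinolinone ketone substrate, 1 mM NADPH and inhibitor at 500 nM, 1% DMSO, 60–120 min at RT. Fluorescent alcohol product (ex 420/em 510 nm) quantified against standards; inhibition derived from conversion percentages.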

The inhibition is the relative decrease from the control value, in per cent. In the case of `N#CC(=C1CCN(C(=O)N2CCC(O)CC2)CC1)c1ccc(F)c(F)c1` [Compound 41, 2-(3,4-difluorophenyl)-2-(1-(4-hydroxypiperidine-1-carbonyl)piperidin-4-ylidene)acetonitrile], the inhibition at 10 µM in test [1] and in test [2] was 7% each time. Also, the inhibition at 0.5 µM in test [3] came to 96%.
On to `N#CC(=C1CCN(C(=O)N2CCC(O)CC2)CC1)c1ccc(F)cc1F` [Compound 42, 2-(2,4-difluorophenyl)-2-(1-(4-hydroxypiperidine-1-carbonyl)piperidin-4-ylidene)acetonitrile], for which the inhibition at 10 µM in test [1] was found to be 11%; in test [2], 10%. The inhibition at 0.5 µM in test [3] amounted to 96%.
The like results for `N#CC(=C1CCN(C(=O)N2CCc3[nH]ncc3C2)CC1)c1ccc(F)c(F)c1` [Compound 43, 2-(3,4-difluorophenyl)-2-(1-(4,5,6,7-tetrahydro-1H-pyrazolo[4,3-c]pyridine-5-carbonyl)piperidin-4-ylidene)acetonitrile] were, in that order, 29%, 21% and 103%.
The like results for `N#CC(=C1CCN(C(=O)N2CCn3cncc3C2)CC1)c1ccc(F)c(F)c1` [Compound 44, 2-(3,4-difluorophenyl)-2-(1-(5,6,7,8-tetrahydroimidazo[1,5-a]pyrazine-7-carbonyl)piperidin-4-ylidene)acetonitrile] were, in that order, 18%, 12% and 103%.
For `N#CC(=C1CCN(C(=O)N2CCOCC2)CC1)c1cccc2[nH]ncc12` [Compound 45, 2-(1H-indazol-4-yl)-2-(1-(morpholine-4-carbonyl)piperidin-4-ylidene)acetonitrile] the same measures were 5%, 2% and 103%.
`N#CC(=C1CCN(C(=O)N2CCn3cncc3C2)CC1)c1ccc(Cl)cc1` [Compound 46, 2-(4-chlorophenyl)-2-(1-(5,6,7,8-tetrahydroimidazo[1,5-a]pyrazine-7-carbonyl)piperidin-4-ylidene)acetonitrile]: the inhibition at 10 µM in test [1] stood at 8%; in test [2], 11%. The inhibition at 0.5 µM in test [3] was 102%.
For `N#CC(=C1CCN(C(=O)N2CCc3sccc3C2)CC1)c1ccc(Cl)cc1` [Compound 47] the same measures were 9%, 20% and 103%.
For `N#CC(=C1CCN(C(=O)N2CCC(O)CC2)CC1)c1cccc2[nH]ncc12` [Compound 48, 2-(1-(4-hydroxypiperidine-1-carbonyl)piperidin-4-ylidene)-2-(1H-indazol-4-yl)acetonitrile] the same measures were 0%, 8% and 100%.
As to `N#CC(=C1CCN(C(=O)N2CCC(CO)CC2)CC1)c1cccc2[nH]ncc12` [Compound 49, 2-(1-(4-(hydroxymethyl)piperidine-1-carbonyl)piperidin-4-ylidene)-2-(1H-indazol-4-yl)acetonitrile], the inhibition at 10 µM in test [1] was 6%; in test [2], 22%. Also, in test [3], the inhibition at 0.5 µM came out at 98%.
The like results for `N#CC(=C1CCN(C(=O)N2CCC(CO)CC2)CC1)c1cc(F)cc(F)c1` [Compound 50, 2-(3,5-difluorophenyl)-2-(1-(4-(hydroxymethyl)piperidine-1-carbonyl)piperidin-4-ylidene)acetonitrile] were, in that order, 16%, 12% and 97%.
For `N#CC(=C1CCN(C(=O)N2CCc3sccc3C2)CC1)c1cc(F)cc(F)c1` [Compound 51, 2-(3,5-difluorophenyl)-2-(1-(4,5,6,7-tetrahydrothieno[3,2-c]pyridine-5-carbonyl)piperidin-4-ylidene)acetonitrile] the same measures were 18%, 26% and 96%.
On to `N#CC(=C1CCN(C(=O)N2CCn3cncc3C2)CC1)c1cc(F)cc(F)c1` [Compound 52, 2-(3,5-difluorophenyl)-2-(1-(5,6,7,8-tetrahydroimidazo[1,5-a]pyrazine-7-carbonyl)piperidin-4-ylidene)acetonitrile], for which the results for the inhibition at 10 µM in test [1] and in test [2] were 19% and 13%, respectively. For the same compound, the inhibition at 0.5 µM in test [3] was found to be 97%.
For `N#CC(=C1CCN(C(=O)N2CCC(CO)CC2)CC1)c1ccc(OC(F)(F)F)cc1` [Compound 53, 2-(1-(4-(hydroxymethyl)piperidine-1-carbonyl)piperidin-4-ylidene)-2-(4-(trifluoromethoxy)phenyl)acetonitrile] the same measures were 7%, 15% and 97%.
For `N#CC(=C1CCN(C(=O)N2CCc3[nH]ncc3C2)CC1)c1ccc(OC(F)(F)F)cc1` [Compound 54, 2-(1-(4,5,6,7-tetrahydro-1H-pyrazolo[4,3-c]pyridine-5-carbonyl)piperidin-4-ylidene)-2-(4-(trifluoromethoxy)phenyl)acetonitrile] the same measures were 15%, 20% and 99%.
Regarding `N#CC(=C1CCN(C(=O)N2CCn3cncc3C2)CC1)c1ccc(OC(F)(F)F)cc1` [Compound 55, 2-(1-(5,6,7,8-tetrahydroimidazo[1,5-a]pyrazine-7-carbonyl)piperidin-4-ylidene)-2-(4-(trifluoromethoxy)phenyl)acetonitrile], the inhibition at 10 µM was 3% in test [1] and 7% in test [2]. In addition, the inhibition at 0.5 µM in test [3] stood at 97%.
For `N#CC(=C1CCN(C(=O)N2CCC(O)CC2)CC1)c1cccc2cn[nH]c12` [Compound 56, 2-(1-(4-hydroxypiperidine-1-carbonyl)piperidin-4-ylidene)-2-(1H-indazol-7-yl)acetonitrile] the same measures were -3%, 3% and 86%.
The like results for `N#CC(=C1CCN(C(=O)N2CCC(O)CC2)CC1)c1ccc(Cl)s1` [Compound 57, 2-(5-chlorothiophen-2-yl)-2-(1-(4-hydroxypiperidine-1-carbonyl)piperidin-4-ylidene)acetonitrile] were, in that order, 13%, 3% and 96%.
Consider `N#CC(=C1CCN(C(=O)N2CCC(O)CC2)CC1)c1cc(F)cc(F)c1` [Compound 58, 2-(3,5-difluorophenyl)-2-(1-(4-hydroxypiperidine-1-carbonyl)piperidin-4-ylidene)acetonitrile], for which the inhibition at 10 µM in test [1] is 6%; in test [2] it was 21%. Further, the inhibition at 0.5 µM in test [3] is 93%.
As to `Cn1ncc2cccc(C(C#N)=C3CCN(C(=O)N4CCn5cncc5C4)CC3)c21` [Compound 59, 2-(1-methyl-1H-indazol-7-yl)-2-(1-(5,6,7,8-tetrahydroimidazo[1,5-a]pyrazine-7-carbonyl)piperidin-4-ylidene)acetonitrile], the inhibition at 10 µM in test [1] is 5%; in test [2], 22%. Moreover, the inhibition at 0.5 µM in test [3] is 98%.
As for `N#CC(=C1CCN(C(=O)N2CCc3[nH]ncc3C2)CC1)c1cccc2[nH]ncc12` [Compound 60, 2-(1H-indazol-4-yl)-2-(1-(4,5,6,7-tetrahydro-1H-pyrazolo[4,3-c]pyridine-5-carbonyl)piperidin-4-ylidene)acetonitrile], the inhibition at 10 µM worked out at 9% in test [1] and 29% in test [2]. The inhibition at 0.5 µM in test [3] worked out at 98%.

The record behind these values is patent US12637471B2, “Heterocyclic compounds, compositions, methods of preparation and uses thereof” (Organon R&D Finland Ltd, priority 2021, dated 2026).
